{"source": "patent US20120029187A1", "about": "“HALOALKYLSULFONANILIDE DERIVATIVE” (Nissan Chemical Industries, Ltd., priority 2009, published 2012)", "type_in_all_cases": "in vivo", "key": {"[1]": {"test_system": "barnyardgrass", "assay": "Test Example 3: herbicidal effects in soil treatment", "details": "dose 3.2 g/a", "summary_of_the_method": "(§1)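 Seeds were sown in sterilized diluvial soil and covered with about 1.5 cm of soil. Compounds, formulated as emulsifiable concentrates and diluted with water, were sprayed evenly over the soil surface at set doses in g/a. Herbicidal effect was scored on a rating scale three weeks later.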"}, "[2]": {"test_system": "redroot pigweed", "assay": "Test Example 3: herbicidal effects in soil treatment", "details": "dose 3.2 g/a", "summary_of_the_method": "as §1"}, "[3]": {"test_system": "large crabgrass", "assay": "Test Example 3: herbicidal effects in soil treatment", "details": "dose 3.2 g/a", "summary_of_the_method": "as §1"}, "[4]": {"test_system": "posumbu knotweed", "assay": "Test Example 3: herbicidal effects in soil treatment", "details": "dose 3.2 g/a", "summary_of_the_method": "as §1"}, "[5]": {"test_system": "common chickweed", "assay": "Test Example 3: herbicidal effects in soil treatment", "details": "dose 3.2 g/a", "summary_of_the_method": "as §1"}, "[6]": {"test_system": "wild oat", "assay": "Test Example 3: herbicidal effects in soil treatment", "details": "dose 3.2 g/a", "summary_of_the_method": "as §1"}, "[7]": {"test_system": "Italian ryegrass", "assay": "Test Example 3: herbicidal effects in soil treatment", "details": "dose 3.2 g/a", "summary_of_the_method": "as §1"}, "[8]": {"test_system": "common ragweed", "assay": "Test Example 3: herbicidal effects in soil treatment", "details": "dose 3.2 g/a", "summary_of_the_method": "as §1"}, "[9]": {"test_system": "velvetleaf", "assay": "Test Example 3: herbicidal effects in soil treatment", "details": "dose 3.2 g/a", "summary_of_the_method": "as §1"}, "[10]": {"test_system": "common lambsquater", "assay": "Test Example 3: herbicidal effects in soil treatment", "details": "dose 3.2 g/a", "summary_of_the_method": "as §1"}, "[11]": {"test_system": "water foxtail", "assay": "Test Example 3: herbicidal effects in soil treatment", "details": "dose 3.2 g/a", "summary_of_the_method": "as §1"}, "[12]": {"test_system": "giant foxtail", "assay": "Test Example 3: herbicidal effects in soil treatment", "details": "dose 3.2 g/a", "summary_of_the_method": "as §1"}, "[13]": {"test_system": "barnyardgrass", "assay": "Test Example 4: herbicidal effect in foliage treatment", "details": "dose 3.2 g/a, three weeks after application", "summary_of_the_method": "(§2)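 Sowing in sterilized diluvial soil, ~1.5 cm cover; growth 14 d, 25–30° C greenhouse; foliar spray of water-diluted EC at predetermined g/a; scoring 3 wk later on graded scale.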"}, "[14]": {"test_system": "redroot pigweed", "assay": "Test Example 4: herbicidal effect in foliage treatment", "details": "dose 3.2 g/a, three weeks after application", "summary_of_the_method": "as §2"}, "[15]": {"test_system": "large crabgrass", "assay": "Test Example 4: herbicidal effect in foliage treatment", "details": "dose 3.2 g/a, three weeks after application", "summary_of_the_method": "as §2"}, "[16]": {"test_system": "posumbu knotweed", "assay": "Test Example 4: herbicidal effect in foliage treatment", "details": "dose 3.2 g/a, three weeks after application", "summary_of_the_method": "as §2"}, "[17]": {"test_system": "common chickweed", "assay": "Test Example 4: herbicidal effect in foliage treatment", "details": "dose 3.2 g/a, three weeks after application", "summary_of_the_method": "as §2"}, "[18]": {"test_system": "wild oat", "assay": "Test Example 4: herbicidal effect in foliage treatment", "details": "dose 3.2 g/a, three weeks after application", "summary_of_the_method": "as §2"}, "[19]": {"test_system": "Italian ryegrass", "assay": "Test Example 4: herbicidal effect in foliage treatment", "details": "dose 3.2 g/a, three weeks after application", "summary_of_the_method": "as §2"}, "[20]": {"test_system": "beadstraw", "assay": "Test Example 4: herbicidal effect in foliage treatment", "details": "dose 3.2 g/a, three weeks after application", "summary_of_the_method": "as §2"}, "[21]": {"test_system": "common ragweed", "assay": "Test Example 4: herbicidal effect in foliage treatment", "details": "dose 3.2 g/a, three weeks after application", "summary_of_the_method": "as §2"}, "[22]": {"test_system": "velvetleaf", "assay": "Test Example 4: herbicidal effect in foliage treatment", "details": "dose 3.2 g/a, three weeks after application", "summary_of_the_method": "as §2"}, "[23]": {"test_system": "common lambsquater", "assay": "Test Example 4: herbicidal effect in foliage treatment", "details": "dose 3.2 g/a, three weeks after application", "summary_of_the_method": "as §2"}, "[24]": {"test_system": "water foxtail", "assay": "Test Example 4: herbicidal effect in foliage treatment", "details": "dose 3.2 g/a, three weeks after application", "summary_of_the_method": "as §2"}, "[25]": {"test_system": "giant foxtail", "assay": "Test Example 4: herbicidal effect in foliage treatment", "details": "dose 3.2 g/a, three weeks after application", "summary_of_the_method": "as §2"}, "[26]": {"test_system": "transplanted rice", "assay": "Test Example 1: preemergence treatment under submerged conditions, effect on crop", "details": "dose 2.52 g/a", "summary_of_the_method": "(§3)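 Flooded-paddy preemergence assay; EC diluted with water, surface-applied at weed seeding; doses g/a; rice transplanted at 2.5 leaves; 0–5 mortality score after 3 weeks.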"}, "[27]": {"test_system": "barnyardgrass", "assay": "Test Example 1: herbicidal effects in preemergence treatment under submerged conditions", "details": "dose 2.52 g/a", "summary_of_the_method": "as §3"}, "[28]": {"test_system": "ducksalad", "assay": "Test Example 1: herbicidal effects in preemergence treatment under submerged conditions", "details": "dose 2.52 g/a", "summary_of_the_method": "as §3"}, "[29]": {"test_system": "bulrush", "assay": "Test Example 1: herbicidal effects in preemergence treatment under submerged conditions", "details": "dose 2.52 g/a", "summary_of_the_method": "as §3"}, "[30]": {"test_system": "barnyardgrass", "assay": "Test Example 2: herbicidal effects during the vegetation period under submerged conditions", "details": "treatment during the vegetation period under submerged conditions; dose 2.52 g/a", "summary_of_the_method": "(§4)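 Barnyardgrass, bulrush and ducksalad were co-sown in alluvial soil flooded to 4 cm and grown in a greenhouse at 25 to 30° C. At the 1- or 2-leaf stage, water-diluted emulsifiable concentrates went onto the water surface at set doses (g/a). Herbicidal effect was scored three weeks later on a graded scale.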"}, "[31]": {"test_system": "ducksalad", "assay": "Test Example 2: herbicidal effects during the vegetation period under submerged conditions", "details": "treatment during the vegetation period under submerged conditions; dose 2.52 g/a", "summary_of_the_method": "as §4"}, "[32]": {"test_system": "bulrush", "assay": "Test Example 2: herbicidal effects during the vegetation period under submerged conditions", "details": "treatment during the vegetation period under submerged conditions; dose 2.52 g/a", "summary_of_the_method": "as §4"}}}
{"smiles": "CCCOC(=O)N(c1ccccc1CN1COC(c2ccccc2)CC1=O)S(=O)(=O)C(F)(F)F", "note": "(centres unmarked) [II-11]", "values": [{"measurement": "A: barnyardgrass, herbicidal effect (evaluation scale 0-5)", "setting": "[1]", "value": "3 (mortality of at least 40% and less than 70%)"}, {"measurement": "K: redroot pigweed, herbicidal effect (evaluation scale 0-5)", "setting": "[2]", "value": "0 (mortality of less than 5% (almost ineffective))"}, {"measurement": "D: large crabgrass, herbicidal effect (evaluation scale 0-5)", "setting": "[3]", "value": "3 (mortality of at least 40% and less than 70%)"}, {"measurement": "M: posumbu knotweed, herbicidal effect (evaluation scale 0-5)", "setting": "[4]", "value": "0 (mortality of less than 5% (almost ineffective))"}, {"measurement": "N: common chickweed, herbicidal effect (evaluation scale 0-5)", "setting": "[5]", "value": "3 (mortality of at least 40% and less than 70%)"}, {"measurement": "F: wild oat, herbicidal effect (evaluation scale 0-5)", "setting": "[6]", "value": "0 (mortality of less than 5% (almost ineffective))"}, {"measurement": "H: Italian ryegrass, herbicidal effect (evaluation scale 0-5)", "setting": "[7]", "value": "3 (mortality of at least 40% and less than 70%)"}, {"measurement": "J: common ragweed, herbicidal effect (evaluation scale 0-5)", "setting": "[8]", "value": "2 (mortality of at least 20% and less than 40%)"}, {"measurement": "I: velvetleaf, herbicidal effect (evaluation scale 0-5)", "setting": "[9]", "value": "5 (mortality of 90% or above (nearly complete death))"}, {"measurement": "L: common lambsquater, herbicidal effect (evaluation scale 0-5)", "setting": "[10]", "value": "0 (mortality of less than 5% (almost ineffective))"}, {"measurement": "G: water foxtail, herbicidal effect (evaluation scale 0-5)", "setting": "[11]", "value": "4 (mortality of at least 70% and less than 90%)"}, {"measurement": "E: giant foxtail, herbicidal effect (evaluation scale 0-5)", "setting": "[12]", "value": "4 (mortality of at least 70% and less than 90%)"}, {"measurement": "A: barnyardgrass, herbicidal effect", "setting": "[13]", "value": "4 (mortality of at least 70% and less than 90%)"}, {"measurement": "K: redroot pigweed, herbicidal effect", "setting": "[14]", "value": "0 (mortality of less than 5% (almost ineffective))"}, {"measurement": "D: large crabgrass, herbicidal effect", "setting": "[15]", "value": "2 (mortality of at least 20% and less than 40%)"}, {"measurement": "M: posumbu knotweed, herbicidal effect", "setting": "[16]", "value": "3 (mortality of at least 40% and less than 70%)"}, {"measurement": "N: common chickweed, herbicidal effect", "setting": "[17]", "value": "4 (mortality of at least 70% and less than 90%)"}, {"measurement": "F: wild oat, herbicidal effect", "setting": "[18]", "value": "0 (mortality of less than 5% (almost ineffective))"}, {"measurement": "H: Italian ryegrass, herbicidal effect", "setting": "[19]", "value": "1 (mortality of at least 5% and less than 20%)"}, {"measurement": "O: beadstraw, herbicidal effect", "setting": "[20]", "value": "4 (mortality of at least 70% and less than 90%)"}, {"measurement": "J: common ragweed, herbicidal effect", "setting": "[21]", "value": "4 (mortality of at least 70% and less than 90%)"}, {"measurement": "I: velvetleaf, herbicidal effect", "setting": "[22]", "value": "4 (mortality of at least 70% and less than 90%)"}, {"measurement": "L: common lambsquater, herbicidal effect", "setting": "[23]", "value": "2 (mortality of at least 20% and less than 40%)"}, {"measurement": "G: water foxtail, herbicidal effect", "setting": "[24]", "value": "3 (mortality of at least 40% and less than 70%)"}, {"measurement": "E: giant foxtail, herbicidal effect", "setting": "[25]", "value": "2 (mortality of at least 20% and less than 40%)"}, {"measurement": "a: transplanted rice, effect on crop (evaluation scale 0-5)", "setting": "[26]", "value": "0 (mortality of less than 5% (almost ineffective))"}, {"measurement": "A: barnyardgrass, herbicidal effect (evaluation scale 0-5)", "setting": "[27]", "value": "5 (mortality of 90% or above (nearly complete death))"}, {"measurement": "C: ducksalad, herbicidal effect (evaluation scale 0-5)", "setting": "[28]", "value": "5 (mortality of 90% or above (nearly complete death))"}, {"measurement": "B: bulrush, herbicidal effect (evaluation scale 0-5)", "setting": "[29]", "value": "5 (mortality of 90% or above (nearly complete death))"}, {"measurement": "A: barnyardgrass, herbicidal effect (evaluation scale 0-5)", "setting": "[30]", "value": "5 (mortality of 90% or above (nearly complete death))"}, {"measurement": "C: ducksalad, herbicidal effect (evaluation scale 0-5)", "setting": "[31]", "value": "5 (mortality of 90% or above (nearly complete death))"}, {"measurement": "B: bulrush, herbicidal effect (evaluation scale 0-5)", "setting": "[32]", "value": "5 (mortality of 90% or above (nearly complete death))"}]}
